Source: PubChem BioAssay AID256 (DTP/NCI, 2004)
“And” between values parts separate entries of the source, which are not always exact repeats. Equal values may be shown once. Toxic doses and inconclusive results are not listed.

System: CD2F1 mice, L1210 leukemia ip, survival T/C
Assay: NCI In Vivo Anticancer Drug Screen. Data for tumor model L1210 Leukemia (intraperitoneal) in CD2F1 (CDF1) mice
Settings: higher = longer survival
Summary of the method: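 Antitumor effect is scored in animals hosting a serially transplanted tumor. Values compare compound-dosed animals against vehicle-only controls as a simple quotient.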

[1] = endpoint: mean survival time, dose: 100.0 mg/kg/injection, schedule: Q01DX001 (ip), vehicle: saline
[2] = endpoint: mean survival time, dose: 100.0 mg/kg/injection, schedule: Q01DX009 (ip), vehicle: saline with Tween-80
[3] = endpoint: mean survival time, dose: 200.0 mg/kg/injection, schedule: Q01DX009 (ip), vehicle: saline with Tween-80
[4] = endpoint: mean survival time, dose: 6.25 mg/kg/injection, schedule: Q01DX009 (ip), vehicle: saline with Tween-80
[5] = endpoint: mean survival time, dose: 12.5 mg/kg/injection, schedule: Q01DX009 (ip), vehicle: saline with Tween-80
[6] = endpoint: mean survival time, dose: 25.0 mg/kg/injection, schedule: Q01DX009 (ip), vehicle: saline with Tween-80
[7] = endpoint: mean survival time, dose: 50.0 mg/kg/injection, schedule: Q01DX009 (ip), vehicle: saline with Tween-80
[8] = endpoint: mean survival time, dose: 100.0 mg/kg/injection, schedule: Q04DX003 (ip), vehicle: saline with Tween-80
[9] = endpoint: mean survival time, dose: 200.0 mg/kg/injection, schedule: Q04DX003 (ip), vehicle: saline with Tween-80
[10] = endpoint: mean survival time, dose: 400.0 mg/kg/injection, schedule: Q04DX003 (ip), vehicle: saline with Tween-80
[11] = endpoint: mean survival time, dose: 0.39 mg/kg/injection, schedule: Q01DX009 (ip), vehicle: saline
[12] = endpoint: mean survival time, dose: 0.78 mg/kg/injection, schedule: Q01DX009 (ip), vehicle: saline
[13] = endpoint: mean survival time, dose: 1.56 mg/kg/injection, schedule: Q01DX009 (ip), vehicle: saline
[14] = endpoint: mean survival time, dose: 3.12 mg/kg/injection, schedule: Q01DX009 (ip), vehicle: saline
[15] = endpoint: mean survival time, dose: 6.25 mg/kg/injection, schedule: Q01DX009 (ip), vehicle: saline
[16] = endpoint: mean survival time, dose: 100.0 mg/kg/injection, schedule: Q04DX002 (ip), vehicle: saline with Tween-80
[17] = endpoint: mean survival time, dose: 200.0 mg/kg/injection, schedule: Q04DX002 (ip), vehicle: saline with Tween-80

## [NH-]C(CO)C(=O)O.[NH-]C(CO)C(=O)O.[Pd+2] (stereo not given)
endpoint: mean survival time, dose: 3.13 mg/kg/injection, schedule: Q04DX003 (ip), vehicle: distilled water + Tween-80
  T/C: 104 % of control
endpoint: mean survival time, dose: 3.13 mg/kg/injection, schedule: Q04DX003 (ip), vehicle: saline
  T/C: 114 % of control
endpoint: mean survival time, dose: 3.13 mg/kg/injection, schedule: Q04DX003 (ip), vehicle: water
  T/C: 95 % of control
endpoint: mean survival time, dose: 6.25 mg/kg/injection, schedule: Q04DX003 (ip), vehicle: distilled water + Tween-80
  T/C: 96 % of control
endpoint: mean survival time, dose: 6.25 mg/kg/injection, schedule: Q04DX003 (ip), vehicle: saline
  T/C: 94 % of control
endpoint: mean survival time, dose: 6.25 mg/kg/injection, schedule: Q04DX003 (ip), vehicle: water
  T/C: 95 % of control
endpoint: mean survival time, dose: 12.5 mg/kg/injection, schedule: Q04DX003 (ip), vehicle: distilled water + Tween-80
  T/C: 98 % of control
endpoint: mean survival time, dose: 12.5 mg/kg/injection, schedule: Q04DX003 (ip), vehicle: saline
  T/C: 102 % of control
endpoint: mean survival time, dose: 12.5 mg/kg/injection, schedule: Q04DX003 (ip), vehicle: water
  T/C: 97 % of control
endpoint: mean survival time, dose: 25.0 mg/kg/injection, schedule: Q04DX003 (ip), vehicle: distilled water + Tween-80
  T/C: 95 % of control
endpoint: mean survival time, dose: 25.0 mg/kg/injection, schedule: Q04DX003 (ip), vehicle: saline
  T/C: 103 % of control
endpoint: mean survival time, dose: 25.0 mg/kg/injection, schedule: Q04DX003 (ip), vehicle: water
  T/C: 96 % of control
endpoint: mean survival time, dose: 50.0 mg/kg/injection, schedule: Q04DX003 (ip), vehicle: distilled water + Tween-80
  T/C: 98 % of control
endpoint: mean survival time, dose: 50.0 mg/kg/injection, schedule: Q04DX003 (ip), vehicle: saline
  T/C: 107 % of control
endpoint: mean survival time, dose: 50.0 mg/kg/injection, schedule: Q04DX003 (ip), vehicle: water
  T/C: 105 % of control
endpoint: mean survival time, dose: 100.0 mg/kg/injection, schedule: Q04DX003 (ip), vehicle: distilled water + Tween-80
  T/C: 102 % of control
endpoint: mean survival time, dose: 100.0 mg/kg/injection, schedule: Q04DX003 (ip), vehicle: saline
  T/C: 106 % of control
endpoint: mean survival time, dose: 100.0 mg/kg/injection, schedule: Q04DX003 (ip), vehicle: water
  T/C: 91 % of control

## CCCCN(CCCC)CCCC
[1]
  T/C: 93 % of control

## O=C(C[n+]1cccc(C(=O)c2ccccc2)c1)c1ccccc1
endpoint: mean survival time, dose: 9.4 mg/kg/injection, schedule: Q01DX009 (ip), vehicle: saline
  T/C: 94 % of control
endpoint: mean survival time, dose: 18.8 mg/kg/injection, schedule: Q01DX009 (ip), vehicle: saline
  T/C: 94 % of control
endpoint: mean survival time, dose: 37.5 mg/kg/injection, schedule: Q01DX009 (ip), vehicle: saline
  T/C: 93 % of control
endpoint: mean survival time, dose: 37.5 mg/kg/injection, schedule: Q04DX003 (ip), vehicle: saline
  T/C: 96 % of control
endpoint: mean survival time, dose: 75.0 mg/kg/injection, schedule: Q01DX001 (ip), vehicle: saline
  T/C: 100 % of control
endpoint: mean survival time, dose: 75.0 mg/kg/injection, schedule: Q04DX003 (ip), vehicle: saline
  T/C: 94 % of control
endpoint: mean survival time, dose: 150.0 mg/kg/injection, schedule: Q01DX001 (ip), vehicle: saline
  T/C: 97 % of control

## FC(F)(F)c1ccc2nc(CI)c(CI)nc2c1
endpoint: mean survival time, dose: 1.5 mg/kg/injection, schedule: Q01DX009 (ip), vehicle: saline with Tween-80
  T/C: 104 % of control
endpoint: mean survival time, dose: 3.0 mg/kg/injection, schedule: Q01DX009 (ip), vehicle: saline with Tween-80
  T/C: 110 % of control
endpoint: mean survival time, dose: 6.0 mg/kg/injection, schedule: Q01DX009 (ip), vehicle: saline with Tween-80
  T/C: 96 % of control
endpoint: mean survival time, dose: 12.0 mg/kg/injection, schedule: Q01DX009 (ip), vehicle: saline with Tween-80
  T/C: 104 % of control
endpoint: mean survival time, dose: 24.0 mg/kg/injection, schedule: Q01DX009 (ip), vehicle: saline with Tween-80
  T/C: 88 % of control

## Cc1cc(=O)c2c(=O)[nH][nH]c2[nH]1
[2]
  T/C: 98 % of control
[3]
  T/C: 104 % of control

## COc1ccc(Cc2cncc3cc(O)c(OC)cc23)cc1O
[1]
  T/C: 102 % of control
endpoint: mean survival time, dose: 200.0 mg/kg/injection, schedule: Q01DX001 (ip), vehicle: saline
  T/C: 96 % of control
endpoint: mean survival time, dose: 400.0 mg/kg/injection, schedule: Q01DX001 (ip), vehicle: saline
  T/C: 96 % of control

## Cc1cc(C(O)CNC(C)CCn2cnc3c2c(=O)n(C)c(=O)n3C)ccc1O (stereo not given)
endpoint: mean survival time, dose: 12.5 mg/kg/injection, schedule: Q01DX005 (ip), vehicle: water
  T/C: 93 % of control
endpoint: mean survival time, dose: 25.0 mg/kg/injection, schedule: Q01DX005 (ip), vehicle: water
  T/C: 96 % of control
endpoint: mean survival time, dose: 50.0 mg/kg/injection, schedule: Q01DX005 (ip), vehicle: water
  T/C: 96 % of control
endpoint: mean survival time, dose: 100.0 mg/kg/injection, schedule: Q01DX005 (ip), vehicle: water
  T/C: 100 % of control
endpoint: mean survival time, dose: 200.0 mg/kg/injection, schedule: Q01DX005 (ip), vehicle: water
  T/C: 93 % of control

## CS(=O)(=O)OCCN(CCOS(C)(=O)=O)c1ccc(C=O)cc1
endpoint: mean survival time, dose: 3.12 mg/kg/injection, schedule: Q01DX009 (ip), vehicle: saline with Tween-80
  T/C: 113 % of control and 115 % of control
[4]
  T/C: 115 % of control and 112 % of control
[5]
  T/C: 117 % of control
endpoint: mean survival time, dose: 12.5 mg/kg/injection, schedule: Q01DX009 (ip), vehicle: saline
  T/C: 96 % of control
[6]
  T/C: 112 % of control
endpoint: mean survival time, dose: 25.0 mg/kg/injection, schedule: Q01DX009 (ip), vehicle: saline
  T/C: 102 % of control
[7]
  T/C: 95 % of control

## Cc1ccc(NC(=O)OCCOc2ccccc2Cl)cc1[N+](=O)[O-]
[5]
  T/C: 98 % of control
[6]
  T/C: 103 % of control
[7]
  T/C: 88 % of control and 103 % of control

## Cc1cn(C2CC(O)C(CO)O2)c(=O)nc1NC1CCCCCCCCCCC1 (stereo not given)
endpoint: median survival time, dose: 12.5 mg/kg/injection, schedule: Q01DX005 (ip), vehicle: distilled water + Tween-80
  T/C: 103 % of control
endpoint: median survival time, dose: 25.0 mg/kg/injection, schedule: Q01DX005 (ip), vehicle: distilled water + Tween-80
  T/C: 102 % of control
endpoint: median survival time, dose: 50.0 mg/kg/injection, schedule: Q01DX005 (ip), vehicle: distilled water + Tween-80
  T/C: 96 % of control
endpoint: median survival time, dose: 100.0 mg/kg/injection, schedule: Q01DX005 (ip), vehicle: distilled water + Tween-80
  T/C: 89 % of control

## [C-]#[N+]CCS(=O)(=O)CC[N+]#[C-]
[2]
  T/C: 94 % of control
[8]
  T/C: 102 % of control
[3]
  T/C: 94 % of control
[9]
  T/C: 102 % of control
endpoint: mean survival time, dose: 400.0 mg/kg/injection, schedule: Q01DX009 (ip), vehicle: saline with Tween-80
  T/C: 100 % of control
[10]
  T/C: 89 % of control

## Oc1c(F)c(F)c(-c2c(F)ccc(F)c2F)c(F)c1F
endpoint: mean survival time, dose: 25.0 mg/kg/injection, schedule: Q01DX001 (ip), vehicle: saline with Tween-80
  T/C: 92 % of control
endpoint: mean survival time, dose: 50.0 mg/kg/injection, schedule: Q01DX001 (ip), vehicle: saline with Tween-80
  T/C: 102 % of control
endpoint: mean survival time, dose: 100.0 mg/kg/injection, schedule: Q01DX001 (ip), vehicle: saline with Tween-80
  T/C: 94 % of control

## CS(=O)(=O)C(=Cc1ccccc1Cl)S(C)(=O)=O
[8]
  T/C: 103 % of control
[9]
  T/C: 95 % of control
[10]
  T/C: 101 % of control

## C1CCC2[N-]CC3CCCCC3[N-]CC3CCCCC3[N-]CC3CCCCC3[N-]CC2C1.[Cu] (stereo not given)
[11]
  T/C: 118 % of control
[12]
  T/C: 116 % of control
[13]
  T/C: 104 % of control
[14]
  T/C: 118 % of control
[15]
  T/C: 119 % of control

## Cc1c(CNc2ccc(C(=O)NC(CC(=O)O)C(=O)O)cc2)ccc2nc(N)nc(N)c12 (stereo not given)
endpoint: mean survival time, dose: 0.18 mg/kg/injection, schedule: Q01DX009 (ip), vehicle: saline
  T/C: 173 % of control
[11]
  T/C: 121 % of control
endpoint: mean survival time, dose: 0.78 mg/kg/injection, schedule: Q01DX009 (ip), vehicle: saline with Tween-80
  T/C: 94 % of control
[12]
  T/C: 107 % of control
[13]
  T/C: 86 % of control and 95 % of control
[14]
  T/C: 93 % of control
[15]
  T/C: 92 % of control
endpoint: mean survival time, dose: 25.0 mg/kg/injection, schedule: Q01DX001 (ip), vehicle: saline
  T/C: 170 % of control
endpoint: mean survival time, dose: 50.0 mg/kg/injection, schedule: Q01DX001 (ip), vehicle: saline
  T/C: 117 % of control

## CC1[N-]CCC[N-]CCC[N-]C(C)C2CCCC1[N-]2.[Ni+2].[O-][Cl+3]([O-])([O-])O (stereo not given)
endpoint: mean survival time, dose: 50.0 mg/kg/injection, schedule: Q04DX002 (ip), vehicle: saline with Tween-80
  T/C: 104 % of control
[16]
  T/C: 101 % of control and 104 % of control
[17]
  T/C: 93 % of control

## Nc1ccnc(SCc2ccc3ccccc3c2)n1
[16]
  T/C: 93 % of control
[17]
  T/C: 101 % of control
endpoint: mean survival time, dose: 400.0 mg/kg/injection, schedule: Q04DX002 (ip), vehicle: saline with Tween-80
  T/C: 101 % of control

## CCOC(=O)C(=O)Nc1cc(C)ccc1C
[4]
  T/C: 96 % of control
[5]
  T/C: 95 % of control
[6]
  T/C: 98 % of control
